Experimental data reported in patent US20260355184A1, “SMALL MOLECULE DEGRADERS OF HIV-1 TAT PROTEIN” (priority 2022, published 2026).
Like-named read-outs stand apart in the source and are kept apart here.

What was measured:
[1] = system: HIV NL4.3 strain; experiment: HIV infectivity assay, reporter cell line HeLa-CD4-LTR-LacZ, β-Gal activity (Tat protein inhibition); assay type: cell-based, HIV-1 (NL4.3); details: Human immunodeficiency virus 1, read-out: Infectivity IC50, HeLa-CD4-LTR-LacZ
Experimental: (§1) Next, the activity of these leads against HIV infection was evaluated using the reporter cell line HeLa-CD4-LTR-LacZ, which stably expresses the β-galactosidase (β-Gal) gene under the control of the HIV 5′ LTR. The HIV NL4.3 strain was used for these studies and β-Gal activity was measured 72 hrs post infection (FIG. 3A). Cytotoxicity assays using Cell-Titer-Glo were performed in parallel to assess cell viability (FIG. 3A). […] Their anti-HIV activity was further assessed in acute replication of Jurkat T cells with the NL4.3 strain (FIG. 3A). […] These OM10.1 cells contain a single integrated wild-type provirus, while ACH-2 cells contain a single integrated provirus with a TAR mutation C37T, defective Tat-TAR feedback loop (FIG. 3B).

[2] = Cytotoxicity assay, Cell-Titer-Glo, HeLa-CD4-LTR-LacZ; details: human, hela-cd4-ltr-lacz cells, Infectivity CC50, HeLa-CD4-LTR-LacZ
Experimental: as §1

Structure (SMILES)	IC50 ([1]; analogs of TT-44856 (Table 3))	other results
Cc1ccccc1CC(=O)NCCCn1ccnc1 [Z51979592]	> 100 µM	–
CCOc1ccccc1NC(=O)Cn1cc(C(F)(F)F)cc(Cl)c1=O [compound 46604]	–	IC50 ([1]; analogs of TT-44863 (Table 2)): > 100 µM; CC50 ([2]; analogs of TT-44863 (Table 2)): > 100 µM
O=C(O)c1ccc(C2(NC(=O)c3cn(-c4ccc(F)cc4)c4ccccc34)CC2)cc1 [compound 42097]	–	IC50 ([1]; analogs of TT-44881 (Table 1)): > 100 µM; CC50 ([2]; analogs of TT-44881 (Table 1)): > 100 µM
N#Cc1ccc(NC(=O)c2cn(-c3ccccc3)c3ccccc23)cc1 [compound 41905]	–	IC50 ([1]; analogs of TT-44881 (Table 1)): 1 to 10 µM; CC50 ([2]; analogs of TT-44881 (Table 1)): 1 to 10 µM
O=C(NCCCn1ccnc1)C(c1ccccc1)c1ccccc1 [compound 46608]	1 to 10 µM	CC50 ([2]; analogs of TT-44856 (Table 3)): > 100 µM
COc1ccc(C(F)(F)F)cc1NC(=O)Cn1cc(C(F)(F)F)cc(Br)c1=O [compound 47055]	–	IC50 ([1]; analogs of TT-44863 (Table 2)): 1 to 10 µM; CC50 ([2]; analogs of TT-44863 (Table 2)): 50 to 100 µM
COc1ccc(C(F)(F)F)cc1CNC(=O)Cn1cc(C(F)(F)F)cc(Cl)c1=O [compound 46875]	–	IC50 ([1]; analogs of TT-44863 (Table 2)): > 100 µM; CC50 ([2]; analogs of TT-44863 (Table 2)): > 100 µM
COc1ccc(C(F)(F)F)cc1-c1noc(Cn2cc(C)cc(Cl)c2=O)n1 [compound 47198]	–	IC50 ([1]; analogs of TT-44863 (Table 2)): > 50 µM; CC50 ([2]; analogs of TT-44863 (Table 2)): > 50 µM
O=C(CC(c1ccccc1)c1ccccc1)NCCCn1ccnc1 [Z30217483]	> 100 µM	–
O=C1N(CCCn2ccnc2)CCC1(c1ccccc1)c1ccccc1 [3-73]	10 to 50 µM	CC50 ([2]; analogs of TT-44856 (Table 3)): > 100 µM
O=C(NCCCn1ccnc1)N(Cc1ccccc1)Cc1ccccc1 [Z991981670]	> 100 µM	–
O=C(c1nn(-c2ccccc2)c2c1CCC2)N1CCCC1 [compound 46607]	–	IC50 ([1]; analogs of TT-44881 (Table 1)): > 100 µM; CC50 ([2]; analogs of TT-44881 (Table 1)): > 100 µM
O=C(NCCCN1CCCC1=O)c1nn(-c2ccccc2)cc1F [compound 47010]	–	IC50 ([1]; analogs of TT-44881 (Table 1)): > 100 µM; CC50 ([2]; analogs of TT-44881 (Table 1)): > 100 µM
O=C(NCCCN1CCCC1=O)c1nn(Cc2ccccc2)c2c1CCC2 [compound 46885]	–	IC50 ([1]; analogs of TT-44881 (Table 1)): > 100 µM; CC50 ([2]; analogs of TT-44881 (Table 1)): > 100 µM
O=C(NCCCn1ccnc1)C(CCO)(c1ccccc1)c1ccccc1 [3-74]	1 to 20 µM	CC50 ([2]; analogs of TT-44856 (Table 3)): > 100 µM
CCC(=O)NC(C(=O)NCCCn1ccnc1)c1ccccc1 (stereo not drawn) [Z1207330250]	> 100 µM	–
O=C(Cc1ccc2c(c1)CCC2)NCCCn1ccnc1 [Z51979499]	> 100 µM	–
O=C(Cc1ccc(F)cc1)NCCCn1ccnc1 [Z31795779]	> 100 µM	–
O=C(NCCCn1ccnc1)c1ccc2ccccc2c1 [Z31795639]	> 100 µM	–
O=C(NCCCn1ccnc1)c1ccc2ccccc2c1 [3-34]	–	CC50 ([2]; analogs of TT-44856 (Table 3)): > 100 µM

Structure (SMILES)	IC50 ([1]; analogs of TT-44856 (Table 3))	other results
CC(C(=O)NCCCn1ccnc1)c1c(Cl)cccc1Cl (stereo not drawn) [Z1004969394]	> 100 µM	–
O=C(Cc1ccccc1F)NCCCn1ccnc1 [Z31795827]	> 100 µM	–
O=C(Cc1cccc(F)c1)NCCCn1ccnc1 [Z31796183]	> 100 µM	–
CNc1ccccc1CC(=O)NCCCn1ccnc1 [Z31794405]	> 100 µM	–
O=C(NCCCn1ccnc1)c1ccc(Oc2ccccc2)cc1 [Z56813845]	> 100 µM	–
COc1cccc(CC(=O)NCCCn2ccnc2)c1 [Z31796092]	> 100 µM	–
Cc1ccc(CCC(=O)NCCCn2ccnc2)cc1 [Z196426172]	> 100 µM	–
O=C(COC(c1ccccc1)c1ccccc1)NCCCn1ccnc1 [Z51979572]	> 100 µM	–
CC(CNC(=O)Cc1c(F)cccc1Cl)Cn1ccnc1 (stereo not drawn) [Z1250741002]	> 100 µM	–
O=C(Cc1cccc(C(F)(F)F)c1)NCCCn1ccnc1 [Z30217436]	> 100 µM	–
CC(C)(C(=O)NCCCn1ccnc1)c1cccc(C(F)(F)F)c1 [Z1053536312]	> 100 µM	–
CC(CNC(=O)CCn1cnc2ccccc21)(c1ccccc1)c1ccccc1 [Z119886832]	> 100 µM	–
O=C(Cc1ccccc1Cl)NCCCn1ccnc1 [Z31796195]	> 100 µM	–
O=C(Cc1ccc(C(F)(F)F)cc1)NCCCn1ccnc1 [Z236749082]	> 100 µM	–
O=C(Cc1c(Cl)cccc1Cl)NCCCn1ccnc1 [Z30217435]	> 100 µM	–
Cc1nccn1CCCNC(=O)C(C)(C)c1ccccc1Cl [Z1119105307]	> 100 µM	–
CC(C)(C(=O)NCCCn1ccnc1)c1cccc(C(F)(F)F)c1 [compound 46606]	–	CC50 ([2]; analogs of TT-44856 (Table 3)): > 100 µM
O=C(Cc1cccc2ccccc12)NCCCn1ccnc1 [Z31795406]	> 100 µM	–
Cc1ccc(CC(=O)NCCCn2ccnc2)cc1 [Z100612606]	> 100 µM	–
